Assay results taken from paper PMC8222254, “Self-assembly of an anion receptor with metal-dependent kinase inhibition and potent in vitro anti-cancer properties” (Nature Communications, 2021).
Several values for one entry are separate records, joined by “and”; a condition that tells them apart may be missing. Identical values can stand only once.

Key:
Assay in all cases: Kinase inhibition screen, cell-free 33P ATP assay at 10 μM
Assay type in all cases: biochemical
[1] = biological target: 140 purified human kinases (Homo sapiens, UniProt P68400)
Protocol: (§1) [L2Cu3]^6+ and [L2Zn3]^6+ were submitted to the MRC Protein Phosphorylation and Ubiquitination Unit International Centre for Kinase Profiling (University of Dundee) and tested in duplicate (at 10 μM) against a series of 140 purified human kinases in a cell-free kinase assay using ^33P ATP[55],[56]. The kinase gene IDs from the screen were then translated into common IDs (HGNC symbol) using biomaRt package[57],[58] in R[59] and R Studio[60] and used as input to the KinMap programme.

[2] = biological target: 140 purified human kinases (Homo sapiens, UniProt Q9P0L2)
Protocol: as §1

[3] = biological target: 140 purified human kinases (Homo sapiens, UniProt P36507)
Protocol: as §1

[4] = biological target: 140 purified human kinases (Homo sapiens, UniProt Q9P286); details: for % Activity Run 1 / % Activity Run 2: 10 µM
Protocol: as §1

[5] = biological target: 140 purified human kinases (Homo sapiens, UniProt O75716)
Protocol: as §1

[6] = biological target: 140 purified human kinases (Homo sapiens, UniProt P27361)
Protocol: as §1

[7] = biological target: 140 purified human kinases (Homo sapiens, UniProt Q6IQ55)
Protocol: as §1

[8] = biological target: 140 purified human kinases (Homo sapiens, UniProt Q16513)
Protocol: as §1

[9] = biological target: 140 purified human kinases (Homo sapiens, UniProt O96017)
Protocol: as §1

[10] = biological target: T1, 140 purified human kinases (Homo sapiens, UniProt P52333)
T1 sequence (P52333 1-1124): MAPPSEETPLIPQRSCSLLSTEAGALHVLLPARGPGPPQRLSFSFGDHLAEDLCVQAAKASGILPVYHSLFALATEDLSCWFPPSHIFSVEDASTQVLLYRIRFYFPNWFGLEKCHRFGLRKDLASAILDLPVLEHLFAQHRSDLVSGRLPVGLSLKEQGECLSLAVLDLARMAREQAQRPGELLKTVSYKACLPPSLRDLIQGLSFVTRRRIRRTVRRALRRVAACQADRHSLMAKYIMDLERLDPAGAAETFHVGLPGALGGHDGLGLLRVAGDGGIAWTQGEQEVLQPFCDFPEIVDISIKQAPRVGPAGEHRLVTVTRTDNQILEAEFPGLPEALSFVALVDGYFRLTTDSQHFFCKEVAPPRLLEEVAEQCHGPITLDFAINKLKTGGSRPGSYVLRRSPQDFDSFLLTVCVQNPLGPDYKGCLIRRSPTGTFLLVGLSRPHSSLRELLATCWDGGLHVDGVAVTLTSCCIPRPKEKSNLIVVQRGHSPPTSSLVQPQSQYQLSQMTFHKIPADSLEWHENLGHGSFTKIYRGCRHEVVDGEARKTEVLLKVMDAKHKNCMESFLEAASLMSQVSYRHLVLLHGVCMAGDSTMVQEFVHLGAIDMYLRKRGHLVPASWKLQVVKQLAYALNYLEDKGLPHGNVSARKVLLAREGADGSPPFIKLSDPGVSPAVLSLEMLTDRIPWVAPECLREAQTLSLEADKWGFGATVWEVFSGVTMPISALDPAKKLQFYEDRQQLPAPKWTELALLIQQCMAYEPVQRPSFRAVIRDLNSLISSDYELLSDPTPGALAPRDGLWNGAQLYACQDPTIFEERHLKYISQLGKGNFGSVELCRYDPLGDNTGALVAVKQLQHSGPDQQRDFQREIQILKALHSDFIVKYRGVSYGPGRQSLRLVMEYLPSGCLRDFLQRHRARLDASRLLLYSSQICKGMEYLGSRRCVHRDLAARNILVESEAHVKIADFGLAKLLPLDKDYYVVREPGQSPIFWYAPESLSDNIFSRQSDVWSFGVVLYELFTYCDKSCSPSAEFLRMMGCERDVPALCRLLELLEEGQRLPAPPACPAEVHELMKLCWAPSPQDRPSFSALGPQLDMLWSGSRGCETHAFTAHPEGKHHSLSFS
Protocol: as §1

Sequence of 140 purified human kinases (Homo sapiens, UniProt P36507) (P36507 whole entry): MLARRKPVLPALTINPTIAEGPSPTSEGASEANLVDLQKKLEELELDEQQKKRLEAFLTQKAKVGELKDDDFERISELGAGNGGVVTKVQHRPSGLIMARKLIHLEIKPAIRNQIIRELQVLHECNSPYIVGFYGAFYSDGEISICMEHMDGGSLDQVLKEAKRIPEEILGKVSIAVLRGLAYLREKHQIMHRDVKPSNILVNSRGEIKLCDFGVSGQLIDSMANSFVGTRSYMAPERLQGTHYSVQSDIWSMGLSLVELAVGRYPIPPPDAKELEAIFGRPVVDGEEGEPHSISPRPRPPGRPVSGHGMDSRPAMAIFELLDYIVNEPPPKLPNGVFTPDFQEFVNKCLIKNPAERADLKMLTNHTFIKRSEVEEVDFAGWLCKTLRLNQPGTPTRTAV
Sequence of 140 purified human kinases (Homo sapiens, UniProt P27361) (P27361 whole entry): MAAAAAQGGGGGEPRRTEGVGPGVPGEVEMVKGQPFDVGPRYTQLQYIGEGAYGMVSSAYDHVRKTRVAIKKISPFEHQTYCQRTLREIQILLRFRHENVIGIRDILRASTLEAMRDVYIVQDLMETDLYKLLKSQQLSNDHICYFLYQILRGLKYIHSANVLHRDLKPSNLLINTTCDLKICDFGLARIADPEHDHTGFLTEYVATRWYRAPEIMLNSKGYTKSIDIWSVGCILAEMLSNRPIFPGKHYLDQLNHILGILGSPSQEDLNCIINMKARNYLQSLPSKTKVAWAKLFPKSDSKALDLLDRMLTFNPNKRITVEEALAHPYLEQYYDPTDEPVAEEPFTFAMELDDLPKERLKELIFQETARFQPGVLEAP
Sequence of 140 purified human kinases (Homo sapiens, UniProt Q9P0L2) (Q9P0L2 whole entry): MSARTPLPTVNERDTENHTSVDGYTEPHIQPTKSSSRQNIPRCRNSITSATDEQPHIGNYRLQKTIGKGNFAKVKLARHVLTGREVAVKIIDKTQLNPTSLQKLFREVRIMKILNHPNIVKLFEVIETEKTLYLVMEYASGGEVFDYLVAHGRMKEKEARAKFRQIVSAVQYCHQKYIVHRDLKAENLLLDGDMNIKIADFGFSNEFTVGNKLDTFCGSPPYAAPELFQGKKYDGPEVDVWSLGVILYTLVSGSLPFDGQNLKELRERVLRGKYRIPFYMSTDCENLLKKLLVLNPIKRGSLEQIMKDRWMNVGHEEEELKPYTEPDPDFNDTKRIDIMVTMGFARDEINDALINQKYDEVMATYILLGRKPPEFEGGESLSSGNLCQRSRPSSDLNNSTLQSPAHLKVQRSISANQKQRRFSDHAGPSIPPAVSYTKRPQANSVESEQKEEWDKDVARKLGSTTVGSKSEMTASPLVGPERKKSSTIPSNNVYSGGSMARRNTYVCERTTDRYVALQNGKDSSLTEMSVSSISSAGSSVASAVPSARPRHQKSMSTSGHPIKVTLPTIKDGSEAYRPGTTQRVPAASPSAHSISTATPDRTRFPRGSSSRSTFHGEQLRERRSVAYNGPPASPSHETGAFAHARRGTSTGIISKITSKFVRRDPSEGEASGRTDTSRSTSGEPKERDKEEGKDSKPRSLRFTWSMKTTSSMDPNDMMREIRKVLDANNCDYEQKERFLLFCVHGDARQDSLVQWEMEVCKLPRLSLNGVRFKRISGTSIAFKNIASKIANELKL
Sequence of 140 purified human kinases (Homo sapiens, UniProt Q6IQ55) (Q6IQ55 whole entry): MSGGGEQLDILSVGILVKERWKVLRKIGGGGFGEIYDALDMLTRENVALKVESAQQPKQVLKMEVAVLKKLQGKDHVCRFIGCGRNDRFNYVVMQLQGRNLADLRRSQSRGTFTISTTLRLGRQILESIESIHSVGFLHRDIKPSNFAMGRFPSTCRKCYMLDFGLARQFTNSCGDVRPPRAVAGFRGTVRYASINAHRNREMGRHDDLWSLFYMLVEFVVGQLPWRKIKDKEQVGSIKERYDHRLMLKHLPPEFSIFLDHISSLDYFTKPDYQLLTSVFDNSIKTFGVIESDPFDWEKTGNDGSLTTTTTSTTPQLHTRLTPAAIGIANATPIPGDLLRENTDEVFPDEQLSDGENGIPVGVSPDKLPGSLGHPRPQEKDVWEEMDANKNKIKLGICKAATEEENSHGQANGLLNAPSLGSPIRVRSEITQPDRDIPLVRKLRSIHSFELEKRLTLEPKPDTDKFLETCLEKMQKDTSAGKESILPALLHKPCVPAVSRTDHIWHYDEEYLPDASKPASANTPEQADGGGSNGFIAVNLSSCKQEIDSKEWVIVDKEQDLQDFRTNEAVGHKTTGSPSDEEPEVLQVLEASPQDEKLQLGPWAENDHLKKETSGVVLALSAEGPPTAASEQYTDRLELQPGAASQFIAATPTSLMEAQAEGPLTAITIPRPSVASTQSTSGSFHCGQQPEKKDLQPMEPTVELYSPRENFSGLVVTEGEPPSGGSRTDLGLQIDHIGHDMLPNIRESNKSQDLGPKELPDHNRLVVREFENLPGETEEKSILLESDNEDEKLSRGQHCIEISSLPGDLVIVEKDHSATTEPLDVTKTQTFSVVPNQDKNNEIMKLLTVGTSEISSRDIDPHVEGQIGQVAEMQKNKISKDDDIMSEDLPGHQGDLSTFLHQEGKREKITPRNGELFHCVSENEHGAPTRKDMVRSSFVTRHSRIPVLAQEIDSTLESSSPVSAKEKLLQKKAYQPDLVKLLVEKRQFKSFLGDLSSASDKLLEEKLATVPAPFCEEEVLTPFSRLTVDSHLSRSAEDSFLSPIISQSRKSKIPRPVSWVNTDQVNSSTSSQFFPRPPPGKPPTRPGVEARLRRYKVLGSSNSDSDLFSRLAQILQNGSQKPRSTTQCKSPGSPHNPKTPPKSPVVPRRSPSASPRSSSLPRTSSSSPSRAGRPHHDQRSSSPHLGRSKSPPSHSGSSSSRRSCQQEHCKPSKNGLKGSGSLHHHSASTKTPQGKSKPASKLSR
Sequence of 140 purified human kinases (Homo sapiens, UniProt Q9P286) (Q9P286 whole entry): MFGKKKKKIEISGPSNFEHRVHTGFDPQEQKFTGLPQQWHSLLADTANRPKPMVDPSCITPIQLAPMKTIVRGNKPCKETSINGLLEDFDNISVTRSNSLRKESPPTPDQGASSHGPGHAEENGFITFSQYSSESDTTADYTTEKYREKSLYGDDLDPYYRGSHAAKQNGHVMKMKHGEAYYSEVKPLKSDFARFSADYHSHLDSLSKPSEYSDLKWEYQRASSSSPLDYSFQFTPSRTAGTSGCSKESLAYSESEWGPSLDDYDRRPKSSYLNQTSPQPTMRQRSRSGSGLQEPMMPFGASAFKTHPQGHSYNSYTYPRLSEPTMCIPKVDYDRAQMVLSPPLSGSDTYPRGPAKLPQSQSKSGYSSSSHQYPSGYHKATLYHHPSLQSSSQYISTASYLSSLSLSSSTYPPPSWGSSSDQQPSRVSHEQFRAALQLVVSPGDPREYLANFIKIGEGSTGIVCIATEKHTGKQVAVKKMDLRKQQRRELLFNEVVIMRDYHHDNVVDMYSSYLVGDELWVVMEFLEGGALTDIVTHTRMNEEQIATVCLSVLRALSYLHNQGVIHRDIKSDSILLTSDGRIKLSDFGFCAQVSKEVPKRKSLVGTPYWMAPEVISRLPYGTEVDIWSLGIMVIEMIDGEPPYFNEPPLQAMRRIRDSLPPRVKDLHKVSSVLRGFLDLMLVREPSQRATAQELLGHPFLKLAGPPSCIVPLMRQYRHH
Sequence of 140 purified human kinases (Homo sapiens, UniProt P68400) (P68400 whole entry): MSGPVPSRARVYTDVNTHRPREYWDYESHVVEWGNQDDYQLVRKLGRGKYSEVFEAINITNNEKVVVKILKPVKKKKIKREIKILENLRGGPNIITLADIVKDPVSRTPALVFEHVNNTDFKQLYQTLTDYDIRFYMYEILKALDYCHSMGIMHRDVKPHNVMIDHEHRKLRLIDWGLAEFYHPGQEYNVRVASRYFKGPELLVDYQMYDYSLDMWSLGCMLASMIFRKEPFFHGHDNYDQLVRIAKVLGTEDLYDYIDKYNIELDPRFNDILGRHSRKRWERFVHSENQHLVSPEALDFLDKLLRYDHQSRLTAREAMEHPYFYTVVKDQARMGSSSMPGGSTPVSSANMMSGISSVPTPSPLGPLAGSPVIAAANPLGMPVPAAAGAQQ
Sequence of 140 purified human kinases (Homo sapiens, UniProt O96017) (O96017 whole entry): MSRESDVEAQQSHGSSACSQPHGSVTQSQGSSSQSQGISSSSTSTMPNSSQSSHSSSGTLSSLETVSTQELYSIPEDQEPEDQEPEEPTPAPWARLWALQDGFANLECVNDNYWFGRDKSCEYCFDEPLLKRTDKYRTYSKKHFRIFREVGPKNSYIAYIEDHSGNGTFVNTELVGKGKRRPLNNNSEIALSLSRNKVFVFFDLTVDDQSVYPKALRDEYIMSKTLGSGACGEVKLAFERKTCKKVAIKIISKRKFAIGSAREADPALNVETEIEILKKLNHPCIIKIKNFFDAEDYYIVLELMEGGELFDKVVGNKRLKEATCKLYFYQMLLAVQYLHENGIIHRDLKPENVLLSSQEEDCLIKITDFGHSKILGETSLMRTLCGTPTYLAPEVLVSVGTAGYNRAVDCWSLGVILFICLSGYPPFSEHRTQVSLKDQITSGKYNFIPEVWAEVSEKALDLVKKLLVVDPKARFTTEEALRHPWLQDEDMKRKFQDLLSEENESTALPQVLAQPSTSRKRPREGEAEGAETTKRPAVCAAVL
Sequence of 140 purified human kinases (Homo sapiens, UniProt O75716) (O75716 whole entry): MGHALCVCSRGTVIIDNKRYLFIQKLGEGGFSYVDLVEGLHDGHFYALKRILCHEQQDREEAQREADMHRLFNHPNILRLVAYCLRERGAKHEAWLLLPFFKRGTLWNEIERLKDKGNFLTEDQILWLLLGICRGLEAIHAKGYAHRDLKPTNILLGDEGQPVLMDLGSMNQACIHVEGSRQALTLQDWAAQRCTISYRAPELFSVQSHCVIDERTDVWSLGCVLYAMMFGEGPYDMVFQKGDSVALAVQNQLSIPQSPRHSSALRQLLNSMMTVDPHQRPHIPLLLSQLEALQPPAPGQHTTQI

[Cu+2].[Cu+2].[Cu+2].c1ccc(-c2csc(NCCN(CCNc3nc(-c4ccccn4)cs3)CCNc3nc(-c4ccccn4)cs3)n2)nc1.c1ccc(-c2csc(NCCN(CCNc3nc(-c4ccccn4)cs3)CCNc3nc(-c4ccccn4)cs3)n2)nc1 [[L2Cu3]6+]
% Inhibition Run 1 ([1]; CK2): -0.5% | % Inhibition Run 2 ([1]; CK2): 5.6% | % Inhibition, Mean ([1]; CK2): 2.55% | mean % activity ([1]; CK2): 97% | % activity ([1]; CK2, Run 1): 100.5% | % activity ([1]; CK2, Run 2): 94.4% | % Inhibition Run 1 ([2]; MARK1): 26.5% | % Inhibition Run 2 ([2]; MARK1): 16.9% | % Inhibition, Mean ([2]; MARK1): 22% | mean % activity ([2]; MARK1): 78% | % activity ([2]; MARK1, Run 1): 73.5% | % activity ([2]; MARK1, Run 2): 83.1% | % Inhibition Run 1 ([3]; MKK2): 70.5% | % Inhibition Run 2 ([3]; MKK2): 79% | % Inhibition, Mean ([3]; MKK2): 75% | mean % activity ([3]; MKK2): 25% | % activity ([3]; MKK2, Run 1): 29.5% | % activity ([3]; MKK2, Run 2): 21% | % Activation, Mean value ([4]; PAK5): 10% | % Inhibition Run 1 ([4]; PAK5): -1.8% | % Inhibition Run 2 ([4]; PAK5): -17.5% | % Inhibition, Mean ([4]; PAK5): -10% | mean % activity ([4]; PAK5): 110% | % activity ([4]; PAK5, Run 1): 101.8% | % activity ([4]; PAK5, Run 2): 117.5% | % Activity Run 1 ([4]; PAK5): 101.80% | % Activity Run 2 ([4]; PAK5): 117.50% | % Inhibition Run 1 ([5]; MPSK1): 71.3% | % Inhibition Run 2 ([5]; MPSK1): 60% | % Inhibition, Mean ([5]; MPSK1): 66% | mean % activity ([5]; MPSK1): 34% | % activity ([5]; MPSK1, Run 1): 28.7% | % activity ([5]; MPSK1, Run 2): 40% | % Activation, Mean value ([6]; ERK1): 1.15% | % Inhibition Run 1 ([6]; ERK1): 6.5% | % Inhibition Run 2 ([6]; ERK1): -8.8% | % Inhibition, Mean ([6]; ERK1): -1.15% | mean % activity ([6]; ERK1): 101% | % activity ([6]; ERK1, Run 1): 93.5% | % activity ([6]; ERK1, Run 2): 108.8% | % Inhibition Run 1 ([7]; TTBK2): 13% | % Inhibition Run 2 ([7]; TTBK2): -12.2% | % Inhibition, Mean ([7]; TTBK2): 0.4% | mean % activity ([7]; TTBK2): 100% | % activity ([7]; TTBK2, Run 1): 87% | % activity ([7]; TTBK2, Run 2): 112.2% | % Inhibition Run 1 ([8]; PRK2): 87.9% | % Inhibition Run 2 ([8]; PRK2): 85.6% | % Inhibition, Mean ([8]; PRK2): 87% | mean % activity ([8]; PRK2): 13% | % activity ([8]; PRK2, Run 1): 12.1% | % activity ([8]; PRK2, Run 2): 14.4% | % Inhibition Run 1 ([9]; CHK2): 86.3% | % Inhibition Run 2 ([9]; CHK2): 76.4% | % Inhibition, Mean ([9]; CHK2): 81% | mean % activity ([9]; CHK2): 19% | % activity ([9]; CHK2, Run 1): 13.7% | % activity ([9]; CHK2, Run 2): 23.6% | % Inhibition Run 1 ([10]; JAK3): 39.3% | % Inhibition Run 2 ([10]; JAK3): 44.6% | % Inhibition, Mean ([10]; JAK3): 42% | mean % activity ([10]; JAK3): 58% | % activity ([10]; JAK3, Run 1): 60.7% | % activity ([10]; JAK3, Run 2): 55.4%

CC(=O)[O-].CC(=O)[O-].CC(=O)[O-].CC(=O)[O-].CC(=O)[O-].CC(=O)[O-].[Zn+2].[Zn+2].[Zn+2].c1ccc(-c2csc(NCCN(CCNc3nc(-c4ccccn4)cs3)CCNc3nc(-c4ccccn4)cs3)n2)nc1.c1ccc(-c2csc(NCCN(CCNc3nc(-c4ccccn4)cs3)CCNc3nc(-c4ccccn4)cs3)n2)nc1 [[L2Zn3]6+]
% Inhibition, Mean ([1]; CK2): 13% | % Inhibition, Run 1 / Run 2 ([1]; CK2): 15% and 12% | mean % activity ([1]; CK2): 87% | % activity ([1]; CK2, duplicate runs): 85% and 88% | % Inhibition, Mean ([2]; MARK1): 23% | % Inhibition, Run 1 / Run 2 ([2]; MARK1): 26% and 20% | mean % activity ([2]; MARK1): 77% | % activity ([2]; MARK1, duplicate runs): 74% and 80% | % Inhibition, Mean ([3]; MKK2): 42% | % Inhibition, Run 1 / Run 2 ([3]; MKK2): 40% and 45% | mean % activity ([3]; MKK2): 58% | % activity ([3]; MKK2, duplicate runs): 60% and 55% | % Activation, Mean value ([4]; PAK5): 20% | % Inhibition, Mean ([4]; PAK5): -20% | mean % activity ([4]; PAK5): 120% | % Activity Run 1 ([4]; PAK5): 110.0% | % Activity Run 2 ([4]; PAK5): 130.0% | % activity ([4]; PAK5, duplicate runs): 110% and 130% | % Inhibition, Mean ([5]; MPSK1): 22% | mean % activity ([5]; MPSK1): 79% | % activity ([5]; MPSK1, duplicate runs): 71% and 86% | % Activation, Mean value ([6]; ERK1): 5% | % Inhibition, Mean ([6]; ERK1): -5% | mean % activity ([6]; ERK1): 105% | % activity ([6]; ERK1, duplicate runs): 115% and 95% | % Activation, Mean value ([7]; TTBK2): 0.5% | % Inhibition, Mean ([7]; TTBK2): -0.5% | mean % activity ([7]; TTBK2): 101% | % activity ([7]; TTBK2, duplicate runs): 91% and 110% | % Inhibition, Mean ([8]; PRK2): 71% | % Inhibition, Run 1 / Run 2 ([8]; PRK2): 77% and 65% | mean % activity ([8]; PRK2): 29% | % activity ([8]; PRK2, duplicate runs): 23% and 35% | % Inhibition, Mean ([9]; CHK2): 22% | mean % activity ([9]; CHK2): 78% | % activity ([9]; CHK2, duplicate runs): 64% and 92% | % Inhibition, Mean ([10]; JAK3): 17% | mean % activity ([10]; JAK3): 83% | % activity ([10]; JAK3, duplicate runs): 66% and 99%
